Measurements reported in PMC6704710, “Preclinical evaluation of 3D185, a novel potent inhibitor of FGFR1/2/3 and CSF-1R, in FGFR-dependent and macrophage-dominant cancer models” (Journal of Experimental & Clinical Cancer Research : CR, 2019).

Key:
Experiment in all cases: Eurofins kinase panel
Type in all cases: biochemical
[1] = molecular target: T1, PI3 Kinase (p110α(E545K)/p85α)(h) (Homo sapiens, UniProt P42336, E545K); details: read-out: Inhibition rate (%)
T1 construct: purchased Eurofins (KinaseProfiler)

CK1(y) = tested on: CK1(y)
cKit(V560G)(h) = molecular target: T2, cKit(V560G)(h) (Homo sapiens, UniProt P10721, V560G); details: read-out: Inhibition rate (%)
T2 construct: purchased Eurofins (KinaseProfiler)

Ret (V804L)(h) = molecular target: T3, Ret (V804L)(h) (Homo sapiens, UniProt P07949, V804L); details: read-out: Inhibition rate (%)
T3 construct: purchased Eurofins (KinaseProfiler)

CaMKIIα(h) = molecular target: T4, CaMKIIα(h) (Homo sapiens, UniProt Q9UQM7); details: read-out: Inhibition rate (%)
T4 construct: purchased Eurofins (KinaseProfiler)

JNK2α2(h) = molecular target: T5, JNK2α2(h) (Homo sapiens, UniProt P45984); details: read-out: Inhibition rate (%)
T5 construct: purchased Eurofins (KinaseProfiler)

PAK4(h) = molecular target: T6, PAK4(h) (Homo sapiens, UniProt O96013); details: read-out: Inhibition rate (%)
T6 construct: purchased Eurofins (KinaseProfiler)

ALK6(h) = molecular target: T7, ALK6(h) (Homo sapiens, UniProt O00238); details: read-out: Inhibition rate (%)
T7 construct: purchased Eurofins (KinaseProfiler)

TrkC(h) = molecular target: T8, TrkC(h) (Homo sapiens, UniProt Q16288); details: read-out: Inhibition rate (%)
T8 construct: purchased Eurofins (KinaseProfiler)

CDK6/cyclinD3(h) = molecular target: T9, CDK6/cyclinD3(h) (Homo sapiens, UniProt Q00534); details: read-out: Inhibition rate (%)
T9 construct: purchased Eurofins (KinaseProfiler)

TSSK1(h) = molecular target: T10, TSSK1(h) (Homo sapiens, UniProt Q9BXA7); details: read-out: Inhibition rate (%)
T10 construct: purchased Eurofins (KinaseProfiler)
T10 sequence (Q9BXA7 1-367): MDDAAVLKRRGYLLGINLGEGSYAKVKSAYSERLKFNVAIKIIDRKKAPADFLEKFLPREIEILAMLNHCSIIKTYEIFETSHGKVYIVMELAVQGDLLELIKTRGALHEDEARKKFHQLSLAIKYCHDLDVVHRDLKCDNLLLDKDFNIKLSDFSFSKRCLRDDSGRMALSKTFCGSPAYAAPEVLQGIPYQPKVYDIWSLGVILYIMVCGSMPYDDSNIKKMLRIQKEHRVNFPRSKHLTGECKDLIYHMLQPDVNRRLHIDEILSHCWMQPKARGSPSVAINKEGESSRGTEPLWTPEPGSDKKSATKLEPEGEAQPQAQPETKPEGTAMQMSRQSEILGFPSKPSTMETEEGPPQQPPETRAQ

CaMKIV(h) = molecular target: T11, CaMKIV(h) (Homo sapiens, UniProt Q16566); details: read-out: Inhibition rate (%)
T11 construct: purchased Eurofins (KinaseProfiler)
T11 sequence (Q16566 1-473): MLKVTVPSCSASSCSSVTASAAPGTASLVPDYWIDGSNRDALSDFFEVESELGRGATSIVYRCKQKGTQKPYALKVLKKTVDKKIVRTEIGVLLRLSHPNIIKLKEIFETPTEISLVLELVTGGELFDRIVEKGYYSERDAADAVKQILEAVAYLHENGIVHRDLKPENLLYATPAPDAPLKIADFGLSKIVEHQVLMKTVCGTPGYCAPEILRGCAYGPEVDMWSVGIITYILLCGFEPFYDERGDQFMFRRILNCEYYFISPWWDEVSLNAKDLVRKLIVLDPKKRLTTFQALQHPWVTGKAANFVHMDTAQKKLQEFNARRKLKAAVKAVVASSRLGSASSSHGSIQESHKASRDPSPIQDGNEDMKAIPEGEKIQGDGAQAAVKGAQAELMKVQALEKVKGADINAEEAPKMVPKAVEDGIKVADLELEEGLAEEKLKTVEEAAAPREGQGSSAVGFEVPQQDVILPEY

MELK(h) = molecular target: T12, MELK(h) (Homo sapiens, UniProt Q14680); details: read-out: Inhibition rate (%)
T12 construct: purchased Eurofins (KinaseProfiler)

PrKX(h) = molecular target: T13, PrKX(h) (Homo sapiens, UniProt P51817); details: read-out: Inhibition rate (%)
T13 construct: purchased Eurofins (KinaseProfiler)
T13 sequence (P51817 1-358): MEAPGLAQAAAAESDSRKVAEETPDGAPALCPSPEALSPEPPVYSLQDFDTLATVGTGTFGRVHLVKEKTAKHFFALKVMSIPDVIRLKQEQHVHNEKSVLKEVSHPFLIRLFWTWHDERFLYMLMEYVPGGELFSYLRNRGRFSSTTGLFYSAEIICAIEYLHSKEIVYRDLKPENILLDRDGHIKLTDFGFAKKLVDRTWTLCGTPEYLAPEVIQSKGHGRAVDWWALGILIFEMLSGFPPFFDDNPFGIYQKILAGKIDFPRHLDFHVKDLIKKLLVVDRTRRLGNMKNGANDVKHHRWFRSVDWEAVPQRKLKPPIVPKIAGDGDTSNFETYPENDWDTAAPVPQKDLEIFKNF

Rsk3(h) = molecular target: T14, Rsk3(h) (Homo sapiens, UniProt Q15349); details: read-out: Inhibition rate (%)
T14 construct: purchased Eurofins (KinaseProfiler)

IGF-1R(h), activated = molecular target: T15, IGF-1R(h), activated (Homo sapiens, UniProt P08069); details: read-out: Inhibition rate (%)
T15 construct: purchased Eurofins (KinaseProfiler)

T8 sequence (Q16288 32-839): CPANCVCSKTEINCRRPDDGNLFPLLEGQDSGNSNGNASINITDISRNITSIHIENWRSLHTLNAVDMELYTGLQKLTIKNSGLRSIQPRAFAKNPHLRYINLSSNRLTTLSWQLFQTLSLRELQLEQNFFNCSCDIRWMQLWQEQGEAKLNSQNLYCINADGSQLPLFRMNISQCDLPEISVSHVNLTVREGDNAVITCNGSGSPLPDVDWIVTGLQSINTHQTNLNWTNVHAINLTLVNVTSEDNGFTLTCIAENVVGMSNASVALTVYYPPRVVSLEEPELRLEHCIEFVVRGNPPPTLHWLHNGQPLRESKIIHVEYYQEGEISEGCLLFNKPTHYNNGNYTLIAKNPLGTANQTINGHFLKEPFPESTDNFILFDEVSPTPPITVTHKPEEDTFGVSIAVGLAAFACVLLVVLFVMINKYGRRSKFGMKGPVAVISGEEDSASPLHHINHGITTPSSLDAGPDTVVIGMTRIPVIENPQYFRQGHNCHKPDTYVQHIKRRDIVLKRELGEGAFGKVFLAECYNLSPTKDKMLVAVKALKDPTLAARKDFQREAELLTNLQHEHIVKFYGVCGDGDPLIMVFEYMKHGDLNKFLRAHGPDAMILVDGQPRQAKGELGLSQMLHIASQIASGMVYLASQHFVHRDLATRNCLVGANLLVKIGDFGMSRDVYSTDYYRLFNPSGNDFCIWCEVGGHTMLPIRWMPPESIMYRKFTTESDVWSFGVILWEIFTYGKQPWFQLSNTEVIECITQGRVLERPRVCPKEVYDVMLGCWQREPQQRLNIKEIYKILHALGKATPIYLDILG
T9 sequence (Q00534 whole entry): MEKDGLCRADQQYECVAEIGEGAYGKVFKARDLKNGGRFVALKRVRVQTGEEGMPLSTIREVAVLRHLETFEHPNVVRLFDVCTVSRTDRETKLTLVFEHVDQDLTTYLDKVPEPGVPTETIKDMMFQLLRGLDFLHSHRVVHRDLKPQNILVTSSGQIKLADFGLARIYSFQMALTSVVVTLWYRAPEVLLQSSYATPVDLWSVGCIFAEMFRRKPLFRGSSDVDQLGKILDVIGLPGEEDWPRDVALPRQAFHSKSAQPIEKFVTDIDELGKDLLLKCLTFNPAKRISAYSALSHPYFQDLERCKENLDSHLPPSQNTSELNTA
T9 sequence (P30281 whole entry partner): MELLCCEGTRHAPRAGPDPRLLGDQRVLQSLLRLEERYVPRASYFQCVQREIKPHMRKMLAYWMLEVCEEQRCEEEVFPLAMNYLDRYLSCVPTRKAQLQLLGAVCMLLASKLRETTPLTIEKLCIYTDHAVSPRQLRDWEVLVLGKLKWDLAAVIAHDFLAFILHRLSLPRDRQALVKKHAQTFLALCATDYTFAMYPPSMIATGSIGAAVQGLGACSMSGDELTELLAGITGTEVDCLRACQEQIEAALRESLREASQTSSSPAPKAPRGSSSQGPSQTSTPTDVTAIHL
T2 sequence (P10721 26-976 V560G): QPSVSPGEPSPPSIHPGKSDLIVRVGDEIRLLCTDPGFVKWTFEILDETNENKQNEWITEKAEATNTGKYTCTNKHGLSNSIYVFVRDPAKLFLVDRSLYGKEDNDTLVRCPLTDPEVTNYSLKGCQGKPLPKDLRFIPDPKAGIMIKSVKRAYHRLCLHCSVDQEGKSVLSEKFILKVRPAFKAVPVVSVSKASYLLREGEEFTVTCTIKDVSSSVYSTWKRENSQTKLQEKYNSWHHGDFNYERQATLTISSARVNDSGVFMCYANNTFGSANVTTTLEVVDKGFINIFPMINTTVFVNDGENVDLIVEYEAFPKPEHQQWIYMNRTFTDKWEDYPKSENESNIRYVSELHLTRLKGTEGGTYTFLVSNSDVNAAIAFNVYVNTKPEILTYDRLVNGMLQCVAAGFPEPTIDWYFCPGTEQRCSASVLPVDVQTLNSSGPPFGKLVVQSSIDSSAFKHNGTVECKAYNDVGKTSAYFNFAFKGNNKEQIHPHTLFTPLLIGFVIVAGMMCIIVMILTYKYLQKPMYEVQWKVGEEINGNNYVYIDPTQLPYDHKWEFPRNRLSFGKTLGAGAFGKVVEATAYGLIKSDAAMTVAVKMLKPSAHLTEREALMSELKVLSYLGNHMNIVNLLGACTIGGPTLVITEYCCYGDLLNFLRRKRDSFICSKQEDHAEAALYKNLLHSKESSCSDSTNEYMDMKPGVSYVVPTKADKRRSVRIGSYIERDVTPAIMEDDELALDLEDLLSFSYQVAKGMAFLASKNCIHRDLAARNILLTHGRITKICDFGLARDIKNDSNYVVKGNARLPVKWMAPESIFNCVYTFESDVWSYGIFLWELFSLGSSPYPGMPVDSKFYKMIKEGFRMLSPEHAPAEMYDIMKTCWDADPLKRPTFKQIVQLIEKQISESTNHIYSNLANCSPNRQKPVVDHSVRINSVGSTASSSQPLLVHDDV
T7 sequence (O00238 14-502): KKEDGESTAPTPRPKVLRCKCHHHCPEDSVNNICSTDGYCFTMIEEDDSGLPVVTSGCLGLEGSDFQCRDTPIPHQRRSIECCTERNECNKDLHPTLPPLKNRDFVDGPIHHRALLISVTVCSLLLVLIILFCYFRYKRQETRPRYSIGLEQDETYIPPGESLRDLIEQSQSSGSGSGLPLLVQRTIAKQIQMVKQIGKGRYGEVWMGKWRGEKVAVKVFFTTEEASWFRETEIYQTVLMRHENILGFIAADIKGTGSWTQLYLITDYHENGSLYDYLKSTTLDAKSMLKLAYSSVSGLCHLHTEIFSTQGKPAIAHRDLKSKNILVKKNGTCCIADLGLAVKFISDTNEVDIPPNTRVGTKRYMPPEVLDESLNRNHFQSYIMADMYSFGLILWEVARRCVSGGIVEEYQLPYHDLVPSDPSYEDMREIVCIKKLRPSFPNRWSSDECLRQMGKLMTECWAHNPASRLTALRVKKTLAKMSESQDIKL
T14 sequence (Q15349 whole entry): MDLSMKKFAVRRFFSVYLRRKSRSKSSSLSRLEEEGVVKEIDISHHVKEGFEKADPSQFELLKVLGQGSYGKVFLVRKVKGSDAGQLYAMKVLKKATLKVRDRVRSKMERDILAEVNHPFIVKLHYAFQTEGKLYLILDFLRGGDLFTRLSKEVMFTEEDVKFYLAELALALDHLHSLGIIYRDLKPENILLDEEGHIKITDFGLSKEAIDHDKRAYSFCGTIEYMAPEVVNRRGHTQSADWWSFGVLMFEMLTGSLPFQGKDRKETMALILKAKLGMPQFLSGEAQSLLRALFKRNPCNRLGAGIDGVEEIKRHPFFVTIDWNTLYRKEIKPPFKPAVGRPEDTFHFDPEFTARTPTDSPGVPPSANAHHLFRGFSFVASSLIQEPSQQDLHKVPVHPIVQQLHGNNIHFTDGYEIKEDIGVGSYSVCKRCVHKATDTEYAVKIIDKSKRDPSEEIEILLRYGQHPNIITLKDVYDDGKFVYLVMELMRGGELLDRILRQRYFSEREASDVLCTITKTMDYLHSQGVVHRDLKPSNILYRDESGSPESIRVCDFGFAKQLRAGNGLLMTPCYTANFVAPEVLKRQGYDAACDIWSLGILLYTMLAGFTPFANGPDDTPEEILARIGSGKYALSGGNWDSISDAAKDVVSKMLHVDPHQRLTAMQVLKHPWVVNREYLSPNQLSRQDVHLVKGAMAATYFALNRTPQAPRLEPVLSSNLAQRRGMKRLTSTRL
T6 sequence (O96013 whole entry): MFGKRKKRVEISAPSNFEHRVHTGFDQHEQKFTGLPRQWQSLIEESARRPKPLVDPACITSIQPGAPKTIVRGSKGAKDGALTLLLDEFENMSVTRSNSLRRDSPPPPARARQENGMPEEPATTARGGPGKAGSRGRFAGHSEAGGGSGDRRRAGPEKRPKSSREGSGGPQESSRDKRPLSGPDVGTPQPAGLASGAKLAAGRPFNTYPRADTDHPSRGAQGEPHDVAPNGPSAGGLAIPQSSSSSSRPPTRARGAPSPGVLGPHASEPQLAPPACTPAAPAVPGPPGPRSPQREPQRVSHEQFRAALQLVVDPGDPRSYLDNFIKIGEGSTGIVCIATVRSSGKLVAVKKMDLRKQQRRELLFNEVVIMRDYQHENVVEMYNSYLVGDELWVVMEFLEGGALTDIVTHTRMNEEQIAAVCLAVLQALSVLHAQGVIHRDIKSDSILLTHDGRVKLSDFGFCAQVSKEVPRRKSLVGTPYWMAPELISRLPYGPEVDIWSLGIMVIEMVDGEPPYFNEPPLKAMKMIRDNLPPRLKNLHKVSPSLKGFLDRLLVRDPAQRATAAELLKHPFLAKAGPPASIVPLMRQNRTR
T12 sequence (Q14680 whole entry): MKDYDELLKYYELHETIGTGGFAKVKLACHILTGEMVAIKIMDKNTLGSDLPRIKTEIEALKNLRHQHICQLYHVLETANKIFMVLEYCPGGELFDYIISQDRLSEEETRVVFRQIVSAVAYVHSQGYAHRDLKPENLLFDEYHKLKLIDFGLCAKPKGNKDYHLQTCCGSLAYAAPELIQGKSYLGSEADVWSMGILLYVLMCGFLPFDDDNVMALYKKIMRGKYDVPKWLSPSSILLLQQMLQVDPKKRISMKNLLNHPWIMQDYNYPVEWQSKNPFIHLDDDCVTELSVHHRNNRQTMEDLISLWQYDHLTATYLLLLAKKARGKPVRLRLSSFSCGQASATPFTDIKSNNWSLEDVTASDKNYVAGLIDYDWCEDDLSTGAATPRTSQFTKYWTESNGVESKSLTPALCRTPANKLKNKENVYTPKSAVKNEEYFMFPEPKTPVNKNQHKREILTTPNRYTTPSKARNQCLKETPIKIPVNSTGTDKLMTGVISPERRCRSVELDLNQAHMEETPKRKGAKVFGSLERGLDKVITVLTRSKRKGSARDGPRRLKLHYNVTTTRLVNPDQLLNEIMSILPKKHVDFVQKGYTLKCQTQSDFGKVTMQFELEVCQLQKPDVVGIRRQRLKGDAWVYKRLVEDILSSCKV

With COc1cc(OC)c(Cl)c(-c2ccc3c(NC(=O)c4ccc(N5CCNC(C)(C)C5)cc4)n[nH]c3n2)c1Cl [3D185] the inhibition at 0.01 µM ([1]; 10 nM) was -2%, the inhibition at 0.1 µM ([1]; 100 nM) was -2% and the inhibition at 1 µM ([1]; 1000 nM) was 2%. For the same compound, the “Inhibition rate (%)” value (CK1(y); 10 nM) was -1%, the “Inhibition rate (%)” value (CK1(y); 100 nM) was 0% and the “Inhibition rate (%)” value (CK1(y); 1000 nM) was 2%. For the same compound, the inhibition at 0.01 µM (cKit(V560G)(h); 10 nM) was 10%, the inhibition at 0.1 µM (cKit(V560G)(h); 100 nM) was 38% and the inhibition at 1 µM (cKit(V560G)(h); 1000 nM) was 71%. For the same compound, the inhibition at 0.01 µM (Ret (V804L)(h); 10 nM) was -13%, the inhibition at 0.1 µM (Ret (V804L)(h); 100 nM) was -15% and the inhibition at 1 µM (Ret (V804L)(h); 1000 nM) was 20%. For the same compound, the inhibition at 0.01 µM (CaMKIIα(h); 10 nM) was -9%, the inhibition at 0.1 µM (CaMKIIα(h); 100 nM) was 2% and the inhibition at 1 µM (CaMKIIα(h); 1000 nM) was -15%. It also gave an inhibition at 0.01 µM (JNK2α2(h); 10 nM) of 3%, an inhibition at 0.1 µM (JNK2α2(h); 100 nM) of 4% and an inhibition at 1 µM (JNK2α2(h); 1000 nM) of 1%. It also gave an inhibition at 0.01 µM (PAK4(h); 10 nM) of -8%, an inhibition at 0.1 µM (PAK4(h); 100 nM) of 0% and an inhibition at 1 µM (PAK4(h); 1000 nM) of -2%. For the same compound, the inhibition at 0.01 µM (ALK6(h); 10 nM) was 3%, the inhibition at 0.1 µM (ALK6(h); 100 nM) was -11% and the inhibition at 1 µM (ALK6(h); 1000 nM) was -5%. It also gave an inhibition at 0.01 µM (TrkC(h); 10 nM) of 36%, an inhibition at 0.1 µM (TrkC(h); 100 nM) of 85% and an inhibition at 1 µM (TrkC(h); 1000 nM) of 98%. It also gave an inhibition at 0.01 µM (CDK6/cyclinD3(h); 10 nM) of 9%, an inhibition at 0.1 µM (CDK6/cyclinD3(h); 100 nM) of 15% and an inhibition at 1 µM (CDK6/cyclinD3(h); 1000 nM) of 16%. The inhibition at 0.01 µM (TSSK1(h); 10 nM) was 5%, the inhibition at 0.1 µM (TSSK1(h); 100 nM) was 2% and the inhibition at 1 µM (TSSK1(h); 1000 nM) was 13%. For the same compound, the inhibition at 0.01 µM (CaMKIV(h); 10 nM) was -6%, the inhibition at 0.1 µM (CaMKIV(h); 100 nM) was -21% and the inhibition at 1 µM (CaMKIV(h); 1000 nM) was -22%. The inhibition at 0.01 µM (MELK(h); 10 nM) was -1%, the inhibition at 0.1 µM (MELK(h); 100 nM) was 8% and the inhibition at 1 µM (MELK(h); 1000 nM) was 14%. The inhibition at 0.01 µM (PrKX(h); 10 nM) was 8%, the inhibition at 0.1 µM (PrKX(h); 100 nM) was 11% and the inhibition at 1 µM (PrKX(h); 1000 nM) was 5%. The inhibition at 0.01 µM (Rsk3(h); 10 nM) was -17%, the inhibition at 0.1 µM (Rsk3(h); 100 nM) was -19% and the inhibition at 1 µM (Rsk3(h); 1000 nM) was -15%. For the same compound, the inhibition at 0.01 µM (IGF-1R(h), activated; 10 nM) was -12%, the inhibition at 0.1 µM (IGF-1R(h), activated; 100 nM) was 6% and the inhibition at 1 µM (IGF-1R(h), activated; 1000 nM) was 49%.
